Reference: patent US20230026259A1, “CA2 COMPOSITIONS AND METHODS FOR TUNABLE REGULATION” (Obsidian Therapeutics, Inc., priority 2019, published 2023)

Columns and labels:
Type in all cases: cell-based
[1] = system: Activated T cells from human donor; assay: Cell surface CAR expression of CA2 regulated CAR constructs (CD19-Fc staining)
Protocol: CA2 DD described herein were operably linked to CARs to generate tunable CAR constructs. Activated T cells from human donor were transduced with 10 μL of lentivirus for indicated constructs. […] Cell surface CAR expression was detected the following day by staining the cells with 10 ug/mL CD19-Fc followed by an anti-human-BV421 conjugated secondary antibody. Histograms were plotted from a live cell gate. Similar experiments were also performed at day 8 and the cells were harvested at day 9. The data are shown in Table 20 as percentage CAR positive cells. The stabilization ratio was also calculated and is included in Table 20 as SR.
Activated T cells from human donor were transduced with 10 μL of lentivirus for indicated constructs. […] Cell surface CAR expression was detected the following day by staining the cells with 10 ug/mL CD19-Fc followed by an anti-human-BV421 conjugated secondary antibody. The percent of ligand induced CAR+ cells are plotted from a live cell gate relative to vehicle treated negative control cells.

NIH3T3 cells [2] = assay: Destabilization mutant screening of human CA2 linked to GFP, ligand response by FACS (Valdecoxib, Celecoxib, Acetazolamide)
NIH3T3 cells [3] = assay: Immunoblotting of cell lysates for GFP after ligand treatment; conditions: NIH3T3 cells, 1, 3, 10 or 30 μM Celecoxib or Valdecoxib, 24 hours
Protocol: The protein expression in the presence of ligand was measured by immunoblotting the cell lysates for GFP.
The protein expression in the presence of ligand was measured by immunoblotting cell lysates for GFP.

NIH3T3 cells [4] = assay: Destabilization mutant screening of human CA2 linked to GFP, ligand response by FACS (Valdecoxib, Celecoxib, Acetazolamide); remark: listed apart in the source
[5] = NIH3T3, Celecoxib 0 μM, 24 hours
[6] = NIH3T3, Celecoxib 0.03 μM, 24 hours
[7] = NIH3T3, Celecoxib 0.1 μM, 24 hours
[8] = NIH3T3, Celecoxib 0.3 μM, 24 hours
[9] = NIH3T3, Celecoxib 1 μM, 24 hours
[10] = NIH3T3, Celecoxib 3 μM, 24 hours
[11] = NIH3T3, Celecoxib 10 μM, 24 hours
[12] = NIH3T3, Celecoxib 30 μM, 24 hours
[13] = NIH3T3, Valdecoxib 0 μM, 24 hours
[14] = NIH3T3, Valdecoxib 0.03 μM, 24 hours
[15] = NIH3T3, Valdecoxib 0.1 μM, 24 hours
[16] = NIH3T3, Valdecoxib 0.3 μM, 24 hours
[17] = NIH3T3, Valdecoxib 1 μM, 24 hours
[18] = NIH3T3, Valdecoxib 3 μM, 24 hours
[19] = NIH3T3, Valdecoxib 10 μM, 24 hours
[20] = NIH3T3, Valdecoxib 30 μM, 24 hours

Cc1onc(-c2ccccc2)c1-c1ccc(S(N)(=O)=O)cc1 [Valdecoxib]
regulation of CAR expression by titrations of Valdecoxib ([1]; T cells day 8, Valdecoxib starting at 10 μM diluting 3-fold, overnight): Little to no ligand dependent regulation of CAR
CAR regulation compared between ligands ([1]; T cells, 10 μM ligand overnight, day 7 and 9): regulation was more evident at day 7

CA2 (aa 2-260 of WT, R27L, T87I, H122Y, N252D) [LibC000226]
Median PE (NIH3T3 cells [2]; NIH3T3, 10 μM Celecoxib): 3816
SR (stabilization ratio) (NIH3T3 cells [2]; NIH3T3, 10 μM Celecoxib vs DMSO): 8.65
Median PE (NIH3T3 cells [2]; NIH3T3, 10 μM Valdecoxib): 3588
SR (stabilization ratio) (NIH3T3 cells [2]; NIH3T3, 10 μM Valdecoxib vs DMSO): 7.93
Median FITC / Median PE (NIH3T3 cells [2]; NIH3T3, Acetazolamide 0.03 μM, 24 hours): 499
Fold change (NIH3T3 cells [2]; NIH3T3, Acetazolamide 0.1 μM vs DMSO): 1.85
Median FITC / Median PE (NIH3T3 cells [2]; NIH3T3, Acetazolamide 0.1 μM, 24 hours): 704
Fold change (NIH3T3 cells [2]; NIH3T3, Acetazolamide 0.3 μM vs DMSO): 3.58
Median FITC / Median PE (NIH3T3 cells [2]; NIH3T3, Acetazolamide 0.3 μM, 24 hours): 1360
Fold change (NIH3T3 cells [2]; NIH3T3, Acetazolamide 1 μM vs DMSO): 9.46
Median FITC / Median PE (NIH3T3 cells [2]; NIH3T3, Acetazolamide 1 μM, 24 hours): 3594
Fold change (NIH3T3 cells [2]; NIH3T3, Acetazolamide 3 μM vs DMSO): 17.49
Median FITC / Median PE (NIH3T3 cells [2]; NIH3T3, Acetazolamide 3 μM, 24 hours): 6645
Fold change (NIH3T3 cells [2]; NIH3T3, Acetazolamide 10 μM vs DMSO): 24.46
Median FITC / Median PE (NIH3T3 cells [2]; NIH3T3, Acetazolamide 10 μM, 24 hours): 9295
Fold change (NIH3T3 cells [2]; NIH3T3, Acetazolamide 30 μM vs DMSO): 28.68
Median FITC / Median PE (NIH3T3 cells [2]; NIH3T3, Acetazolamide 30 μM, 24 hours): 10900
Med (median fluorescence intensity) (NIH3T3 cells [2]; [5]): 531
SR (stabilization ratio) (NIH3T3 cells [2]; [5]): 1
Med (median fluorescence intensity) (NIH3T3 cells [2]; [6]): 711
SR (stabilization ratio) (NIH3T3 cells [2]; [6]): 1.34
Med (median fluorescence intensity) (NIH3T3 cells [2]; [7]): 661
SR (stabilization ratio) (NIH3T3 cells [2]; [7]): 1.24
Med (median fluorescence intensity) (NIH3T3 cells [2]; [8]): 750
SR (stabilization ratio) (NIH3T3 cells [2]; [8]): 1.41
Med (median fluorescence intensity) (NIH3T3 cells [2]; [9]): 1207
SR (stabilization ratio) (NIH3T3 cells [2]; [9]): 2.27
Med (median fluorescence intensity) (NIH3T3 cells [2]; [10]): 2544
SR (stabilization ratio) (NIH3T3 cells [2]; [10]): 4.79
Med (median fluorescence intensity) (NIH3T3 cells [2]; [11]): 5227
SR (stabilization ratio) (NIH3T3 cells [2]; [11]): 9.84
Med (median fluorescence intensity) (NIH3T3 cells [2]; [12]): 7171
SR (stabilization ratio) (NIH3T3 cells [2]; [12]): 13.5
Median PE (NIH3T3 cells [2]; NIH3T3, DMSO): 441
SR (stabilization ratio) (NIH3T3 cells [2]; NIH3T3, DMSO (reference)): 1
Median FITC / Median PE (NIH3T3 cells [2]; NIH3T3, DMSO, 24 hours (Acetazolamide experiment)): 380
Med (median fluorescence intensity) (NIH3T3 cells [2]; [13]): 531
SR (stabilization ratio) (NIH3T3 cells [2]; [13]): 1
Med (median fluorescence intensity) (NIH3T3 cells [2]; [14]): 580
SR (stabilization ratio) (NIH3T3 cells [2]; [14]): 1.09
Med (median fluorescence intensity) (NIH3T3 cells [2]; [15]): 623
SR (stabilization ratio) (NIH3T3 cells [2]; [15]): 1.17
Med (median fluorescence intensity) (NIH3T3 cells [2]; [16]): 655
SR (stabilization ratio) (NIH3T3 cells [2]; [16]): 1.23
Med (median fluorescence intensity) (NIH3T3 cells [2]; [17]): 873
SR (stabilization ratio) (NIH3T3 cells [2]; [17]): 1.64
Med (median fluorescence intensity) (NIH3T3 cells [2]; [18]): 1572
SR (stabilization ratio) (NIH3T3 cells [2]; [18]): 2.96
Med (median fluorescence intensity) (NIH3T3 cells [2]; [19]): 3902
SR (stabilization ratio) (NIH3T3 cells [2]; [19]): 7.35
Med (median fluorescence intensity) (NIH3T3 cells [2]; [20]): 6245
SR (stabilization ratio) (NIH3T3 cells [2]; [20]): 11.76
stabilization with varying doses of Valdecoxib or Celecoxib (NIH3T3 cells [2]; NIH3T3 cells, 24 hours, FACS): dose dependent stabilization
GFP protein expression by immunoblot, Celecoxib or Valdecoxib (NIH3T3 cells [3]): stabilization of GFP with increasing ligand doses
Fold change (NIH3T3 cells [4]; NIH3T3, Acetazolamide 0.03 μM vs DMSO): 1.31
Fold change (NIH3T3 cells [4]; NIH3T3, DMSO (reference), Acetazolamide experiment): 1
